IC50 data for 22 compounds are collected here from patent publication US11584755B2 (IDEAYA BIOSCIENCES, INC., priority 2017, dated 2023).

Molecules are shown by their SMILES. pIC50: −log10 of the molar value.

What all share (format): biochemical
Assay [1] has as its target hEXO1, Isoform1 (Homo sapiens (Human), UniProt Q9UQ84). The assay can be described thus: Enzymatic IC50 assay, FAM-labeled DNA oligomer substrate, fluorescence intensity (EXO1). Particulars: hEXO1 6 nM, substrate 30 nM, reaction time 60 minutes, 23° C. On the procedure:
(§1) FEN1, EXO1 or XPG enzyme was incubated with compound or vehicle (DMSO) and the FAM-labeled DNA oligomer substrate in a microtiter plate. The stop buffer contains EDTA to stop the enzymatic reaction. The plate is read for fluorescence intensity. The high control (DMSO) with high fluorescence intensity represents no inhibition of enzymatic reaction while the low control (10 μM) with low fluorescence intensity represents full inhibition of enzymatic reaction.
(§2) • FEN1 • hFEN1: 70 pM • Substrate: 100 nM • Reaction time: 20 minutes • EXO1 • hEXO1: 6 nM, Isoforml • Substrate: 30 nM • Reaction time: 60 minutes • XPG • hXPG: 100 nM • Substrate: 100 nM • Reaction time: 120 minutes
(§3) Annealing Buffer: 50 mM Tris-HCl, 50 mM NaCl, 1 mM DTT Assay buffer: 50 mM Tris-HCl pH 8.0, 10 mM MgCl2, 0.01% BSA, 1 mM DTT Stop buffer: 50 mM EDTA in assay buffer Temperature: 23° C. Total volume: 40 μl Controls: • 0% inhibition control: DMSO • 100% inhibition control: 10 μM (final) 5-chloro-3-hydroxy-1,3-dihydroquinazoline-2,4-dione Enzyme Reaction and Detection: • 1. Prepare 25 μM intermediate stock of the substrate by diluting SEQ ID NO:1, SEQ ID NO:2, and SEQ ID NO:3 in annealing buffer, in a PCR tube. • 2. Place the PCR tube on a heat block, heat at 95° C. for 3 minutes, then drop in 0.2° C. increments over 2 minutes, stopping at 25° C. • 3. Remove the tube and let the tube cool at room temperature. • 4. Transfer 10 μL of 3× final concentration test compounds or DMSO to the appropriate wells of a microtiter plate. • 5. Transfer 10 μL of 3× final concentration enzyme in assay buffer or assay buffer alone to the appropriate wells. • 6. Incubate the plate at room temperature for 15 minutes. • 7. Transfer 10 μL of 3× substrate in assay buffer to all the test wells. • 8. Incubate the plate at room temperature for prescribed reaction time. • 9. Centrifuge the plate at 1000 rpm for 1 minute. • 10. Transfer 10 μL of stop buffer to all the test wells. • 11. Centrifuge the plate at 1000 rpm for 1 minute. • 12. Read the plate on a plate reader.

In assay [2] the target is hXPG (Homo sapiens (Human), UniProt P28715). The assay can be described thus: Enzymatic IC50 assay, FAM-labeled DNA oligomer substrate, fluorescence intensity (XPG). The following applies: hXPG 100 nM, substrate 100 nM, reaction time 120 minutes, 23° C. On the procedure:
as §1, §2, §3

Assay [3] has as its target hFEN1 (Homo sapiens (Human), UniProt P39748). The experiment in a line: Enzymatic IC50 assay, FAM-labeled DNA oligomer substrate, fluorescence intensity (FEN1). Particulars: hFEN1 70 pM, substrate 100 nM, reaction time 20 minutes, 23° C. An outline of the steps: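 FEN1, EXO1 or XPG was preincubated 15 min with compound, then the FAM-labelled DNA oligomer substrate was added in Tris-HCl pH 8.0 with 10 mM MgCl2 at 23° C. FEN1 was 70 pM with 100 nM substrate for 20 min, EXO1 6 nM with 30 nM for 60 min, and XPG 100 nM with 100 nM for 120 min. Reactions were EDTA-stopped and read by fluorescence intensity.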

Chain of hFEN1 (P39748 whole entry): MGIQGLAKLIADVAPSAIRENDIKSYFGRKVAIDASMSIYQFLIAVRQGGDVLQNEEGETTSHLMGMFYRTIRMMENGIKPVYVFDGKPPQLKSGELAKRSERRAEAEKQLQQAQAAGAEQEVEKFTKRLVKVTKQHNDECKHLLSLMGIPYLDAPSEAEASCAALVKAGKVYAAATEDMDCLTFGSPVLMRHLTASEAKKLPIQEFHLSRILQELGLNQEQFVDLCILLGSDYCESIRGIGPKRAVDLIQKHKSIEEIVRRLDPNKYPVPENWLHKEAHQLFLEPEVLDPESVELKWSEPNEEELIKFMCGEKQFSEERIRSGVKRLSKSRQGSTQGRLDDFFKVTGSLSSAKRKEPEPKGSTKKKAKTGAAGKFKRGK
Chain of hXPG (P28715 whole entry): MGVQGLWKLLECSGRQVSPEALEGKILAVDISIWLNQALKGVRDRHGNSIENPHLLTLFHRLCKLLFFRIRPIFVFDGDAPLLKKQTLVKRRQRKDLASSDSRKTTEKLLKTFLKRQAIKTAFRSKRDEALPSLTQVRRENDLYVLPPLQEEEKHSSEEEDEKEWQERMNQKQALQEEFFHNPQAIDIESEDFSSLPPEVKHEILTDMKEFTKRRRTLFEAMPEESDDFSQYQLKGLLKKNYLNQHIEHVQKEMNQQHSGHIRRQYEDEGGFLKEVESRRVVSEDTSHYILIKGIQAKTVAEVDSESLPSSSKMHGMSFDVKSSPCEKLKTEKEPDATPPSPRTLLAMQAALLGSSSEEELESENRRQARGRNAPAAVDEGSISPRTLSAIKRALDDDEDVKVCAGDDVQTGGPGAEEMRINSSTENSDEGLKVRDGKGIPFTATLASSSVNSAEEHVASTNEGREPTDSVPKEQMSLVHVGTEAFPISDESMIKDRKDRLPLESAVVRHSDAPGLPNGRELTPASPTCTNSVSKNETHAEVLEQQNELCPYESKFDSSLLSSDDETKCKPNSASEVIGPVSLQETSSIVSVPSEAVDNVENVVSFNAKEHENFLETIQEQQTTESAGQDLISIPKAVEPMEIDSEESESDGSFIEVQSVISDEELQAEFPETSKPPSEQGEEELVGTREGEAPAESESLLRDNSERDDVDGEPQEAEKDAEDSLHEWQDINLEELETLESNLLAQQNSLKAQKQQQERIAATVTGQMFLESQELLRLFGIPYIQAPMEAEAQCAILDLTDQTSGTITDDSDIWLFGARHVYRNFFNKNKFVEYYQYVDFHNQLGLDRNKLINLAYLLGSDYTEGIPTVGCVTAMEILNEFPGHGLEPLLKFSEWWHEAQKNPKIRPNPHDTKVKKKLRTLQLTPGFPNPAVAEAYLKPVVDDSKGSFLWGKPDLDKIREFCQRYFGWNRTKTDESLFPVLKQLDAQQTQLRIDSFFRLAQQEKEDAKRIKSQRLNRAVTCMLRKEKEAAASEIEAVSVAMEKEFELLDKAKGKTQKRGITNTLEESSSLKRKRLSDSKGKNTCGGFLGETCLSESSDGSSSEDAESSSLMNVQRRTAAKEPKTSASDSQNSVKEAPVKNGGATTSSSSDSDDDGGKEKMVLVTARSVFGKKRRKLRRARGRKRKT
Chain of hEXO1, Isoform1 (Q9UQ84 whole entry, canonical isoform): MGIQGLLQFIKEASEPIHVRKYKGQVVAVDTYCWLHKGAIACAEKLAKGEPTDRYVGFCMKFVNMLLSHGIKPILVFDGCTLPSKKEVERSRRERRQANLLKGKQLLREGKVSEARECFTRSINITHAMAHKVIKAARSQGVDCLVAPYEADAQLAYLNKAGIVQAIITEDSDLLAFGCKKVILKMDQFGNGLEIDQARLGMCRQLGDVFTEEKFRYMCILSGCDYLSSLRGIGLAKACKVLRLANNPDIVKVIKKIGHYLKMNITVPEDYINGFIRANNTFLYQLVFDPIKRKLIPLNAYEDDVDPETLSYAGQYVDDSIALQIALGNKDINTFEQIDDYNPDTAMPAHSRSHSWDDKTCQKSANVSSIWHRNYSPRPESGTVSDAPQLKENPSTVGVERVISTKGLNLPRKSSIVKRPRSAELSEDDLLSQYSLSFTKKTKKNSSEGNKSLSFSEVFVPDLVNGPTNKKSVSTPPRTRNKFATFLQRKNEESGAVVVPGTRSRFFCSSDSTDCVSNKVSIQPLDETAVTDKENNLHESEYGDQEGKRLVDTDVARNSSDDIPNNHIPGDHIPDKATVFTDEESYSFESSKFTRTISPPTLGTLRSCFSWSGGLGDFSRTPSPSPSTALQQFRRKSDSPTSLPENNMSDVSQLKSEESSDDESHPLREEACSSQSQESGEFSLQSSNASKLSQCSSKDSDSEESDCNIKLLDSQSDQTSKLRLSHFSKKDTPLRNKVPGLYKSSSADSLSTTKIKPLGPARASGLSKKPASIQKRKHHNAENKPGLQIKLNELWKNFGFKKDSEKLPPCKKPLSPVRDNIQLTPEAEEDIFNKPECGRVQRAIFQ

One may read the pIC50 as −log10 of the IC50, conventionally taken in molar units. Lower therefore signals a high IC50. For `CC(=O)Nc1ccc(-n2cc(Cn3c(=O)c(O)c(C(=O)O)c4sccc43)cn2)cc1` [Example 22, 4-{[1-(4-acetamidophenyl)-1H-pyrazol-4-yl]methyl}-6-hydroxy-5-oxo-4,5-dihydrothieno[3,2-b]pyridine-7-carboxylic acid], the results for the pIC50 in assay [1], in assay [2] and in assay [3] were 6.12 to 6.60, 6.12 to 6.60 and > 6.70, respectively.

`O=C(O)c1c(O)c(=O)n(Cc2cnn3ccccc23)c2ccsc12` [Example 24, 6-hydroxy-5-oxo-4-(pyrazolo[1,5-a]pyridin-3-ylmethyl)-4,5-dihydrothieno[3,2-b]pyridine-7-carboxylic acid]: the values for the negative-log IC50 (pIC50) in assay [1], in assay [2] and in assay [3] were 5.65 to 6.12, > 6.70 and > 6.70, respectively.

As for `O=C(O)c1c(O)c(=O)n(Cc2cnn(CCc3ccncc3)c2)c2ccsc12` [Example 28, 6-hydroxy-5-oxo-4-({1-[2-(4-pyridyl)ethyl]pyrazol-4-yl}methyl)thieno[3,2-b]pyridine-7-carboxylic acid], the pIC50 is 5.00 to 5.65 in assay [1], 5.00 to 5.65 in assay [2] and > 6.70 in assay [3].

For the compound `COc1ccc(Cn2c(=O)c(O)c(C(=O)O)c3sc(Cc4ccccc4)cc32)cc1` [Example 29, 2-benzyl-6-hydroxy-4-(4-methoxybenzyl)-5-oxo-4,5-dihydrothieno[3,2-b]pyridine-7-carboxylic acid], the pIC50 in assay [1], in assay [2] and in assay [3] was 5.00 to 5.65 throughout.

For the compound `COc1ccc(Cn2c(=O)c(O)c(C(=O)O)c3sc(C4CC4)cc32)cc1` [Example 30, 2-cyclopropyl-6-hydroxy-4-(4-methoxybenzyl)-5-oxo-4,5-dihydrothieno[3,2-b]pyridine-7-carboxylic acid], the pIC50 is 6.12 to 6.60 in assay [1], 5.00 to 5.65 in assay [2] and 5.65 to 6.12 in assay [3].

On to `O=C(O)c1c(O)c(=O)n(Cc2cccc(Cl)c2)c2ccsc12` [Example 34, 4-(3-chlorobenzyl)-6-hydroxy-5-oxo-4,5-dihydrothieno[3,2-b]pyridine-7-carboxylic acid], for which the negative logarithm of the IC50 (pIC50) in assay [1] was 5.00 to 5.65; in assay [2], 5.00 to 5.65; in assay [3] it was > 6.70.

As for `CC(=O)Nc1ccc(Cn2c(=O)c(O)c(C(=O)O)c3sccc32)cc1` [Example 40, 4-(4-acetamidobenzyl)-6-hydroxy-5-oxo-4,5-dihydrothieno[3,2-b]pyridine-7-carboxylic acid], the negative-log IC50 (pIC50) in assay [1] is 5.00 to 5.65; in assay [2], 5.00 to 5.65; in assay [3] it was > 6.70.

On to `O=C(O)c1c(O)c(=O)n(CC2CCOC2)c2ccsc12` (stereo not drawn) [Example 42, 6-hydroxy-5-oxo-4-((tetrahydrofuran-3-yl)methyl)-4,5-dihydrothieno[3,2-b]pyridine-7-carboxylic acid], for which the pIC50 in assay [1], in assay [2] and in assay [3] was 5.00 to 5.65 throughout.

On to `CS(=O)(=O)c1ccc(Cn2c(=O)c(O)c(C(=O)O)c3sccc32)cc1` [Example 50, 6-hydroxy-4-(4-(methylsulfonyl)benzyl)-5-oxo-4,5-dihydrothieno[3,2-b]pyridine-7-carboxylic acid], for which the pIC50 in assay [1] is 5.65 to 6.12; in assay [2], 5.00 to 5.65; in assay [3] it was 6.12 to 6.60.

Regarding `Nc1ccc(Cn2c(=O)c(O)c(C(=O)O)c3sccc32)cc1` [Example 53, 4-(4-aminobenzyl)-6-hydroxy-5-oxo-4,5-dihydrothieno[3,2-b]pyridine-7-carboxylic acid], the pIC50 was 5.00 to 5.65 in assay [1], 5.00 to 5.65 in assay [2] and > 6.70 in assay [3].

Turning to `CS(=O)(=O)c1cccc(Cn2c(=O)c(O)c(C(=O)O)c3sccc32)c1` [Example 63, 6-hydroxy-4-[3-(methylsulfonyl)benzyl]-5-oxo-4,5-dihydrothieno[3,2-b]pyridine-7-carboxylic acid], the negative logarithm of the IC50 (pIC50) is 5.00 to 5.65 in assay [1], 5.00 to 5.65 in assay [2] and 5.65 to 6.12 in assay [3].

As to `O=C(O)c1c(O)c(=O)n(Cc2cnc[nH]2)c2ccsc12` [Example 75, 4-[(1H-imidazol-5-yl)methyl]-6-hydroxy-5-oxo-4,5-dihydrothieno[3,2-b]pyridine-7-carboxylic acid], the pIC50 in assay [1] was 5.00 to 5.65; in assay [2], < 5.00; in assay [3] it was 5.65 to 6.12.

For the compound `CS(=O)(=O)Nc1cccc(Cn2c(=O)c(O)c(C(=O)O)c3sccc32)c1` [Example 78, 6-hydroxy-4-[3-(methylsulfonamido)benzyl]-5-oxo-4,5-dihydrothieno[3,2-b]pyridine-7-carboxylic acid], the pIC50 in assay [1] is 5.65 to 6.12; in assay [2], 5.00 to 5.65; in assay [3] it was 6.12 to 6.60.

For the compound `O=C(O)c1c(O)c(=O)n(Cc2ccc(Oc3ccccc3)cc2)c2ccsc12` [Example 81, 6-hydroxy-5-oxo-4-(4-phenoxybenzyl)-4,5-dihydrothieno[3,2-b]pyridine-7-carboxylic acid], the values for the pIC50 in assay [1], in assay [2] and in assay [3] were 5.00 to 5.65, 5.00 to 5.65 and 6.12 to 6.60, respectively.

Regarding `Cc1cc(Cn2c(=O)c(O)c(C(=O)O)c3sccc32)on1` [Example 83, 6-hydroxy-4-[(3-methylisoxazol-5-yl)methyl]-5-oxo-4,5-dihydrothieno[3,2-b]pyridine-7-carboxylic acid], the pIC50 is < 5.00 in assay [1], < 5.00 in assay [2] and 6.12 to 6.60 in assay [3].

As for `O=C(O)c1c(O)c(=O)n(Cc2cnn(-c3ccccc3)c2)c2ccsc12` [Example 84, 6-hydroxy-5-oxo-4-[(1-phenyl-1H-pyrazol-4-yl)methyl]-4,5-dihydrothieno[3,2-b]pyridine-7-carboxylic acid], the results for the pIC50 in assay [1], in assay [2] and in assay [3] were 6.12 to 6.60, 6.12 to 6.60 and > 6.70, respectively.

As for `O=C(O)c1c(O)c(=O)n(Cc2nnc(-c3ccccc3)o2)c2ccsc12` [Example 85, 6-hydroxy-5-oxo-4-[(5-phenyl-1,3,4-oxadiazol-2-yl)methyl]-4,5-dihydrothieno[3,2-b]pyridine-7-carboxylic acid], the pIC50 in assay [1] is 5.00 to 5.65; in assay [2], 5.65 to 6.12; in assay [3], 6.12 to 6.60.

For the compound `O=C(O)c1c(O)c(=O)n(Cc2nc(-c3ccccc3)no2)c2ccsc12` [Example 86, 6-hydroxy-5-oxo-4-[(3-phenyl-1,2,4-oxadiazol-5-yl)methyl]-4,5-dihydrothieno[3,2-b]pyridine-7-carboxylic acid], the pIC50 in assay [1] is 5.65 to 6.12; in assay [2], 5.65 to 6.12; in assay [3], 6.12 to 6.60.

Consider `O=C(O)c1c(O)c(=O)n(Cc2cnn(-c3cccnc3)c2)c2ccsc12` [Example 87, 6-hydroxy-5-oxo-4-{[1-(pyridin-3-yl)-1H-pyrazol-4-yl]methyl}-4,5-dihydrothieno[3,2-b]pyridine-7-carboxylic acid], for which the figures for the pIC50 in assay [1], in assay [2] and in assay [3] were 6.12 to 6.60, 5.65 to 6.12 and > 6.70, respectively.

For `O=C(O)c1c(O)c(=O)n(Cc2noc(-c3ccccc3)n2)c2ccsc12` [Example 88, 6-hydroxy-5-oxo-4-[(5-phenyl-1,2,4-oxadiazol-3-yl)methyl]-4,5-dihydrothieno[3,2-b]pyridine-7-carboxylic acid], the pIC50 in assay [1] is 6.12 to 6.60; in assay [2] it was 5.00 to 5.65; in assay [3] it was 5.65 to 6.12.

Turning to `Cn1cc(Cn2c(=O)c(O)c(C(=O)O)c3sccc32)cn1` [Example 90, 6-hydroxy-4-[(1-methyl-1H-pyrazol-4-yl)methyl]-5-oxo-4,5-dihydrothieno[3,2-b]pyridine-7-carboxylic acid], the negative logarithm of the IC50 (pIC50) in assay [1] was 5.00 to 5.65; in assay [2], 5.00 to 5.65; in assay [3], > 6.70.

Turning to `Cc1ncc(Cn2c(=O)c(O)c(C(=O)O)c3sccc32)s1` [Example 91, 6-hydroxy-4-[(2-methylthiazol-5-yl)methyl]-5-oxo-4,5-dihydrothieno[3,2-b]pyridine-7-carboxylic acid], the results for the pIC50 in assay [1], in assay [2] and in assay [3] were 5.00 to 5.65, 5.00 to 5.65 and > 6.70, respectively.
